Data set [1] can be described thus: Stability tests in aqueous solution, 0.9% NaCl at 37° C. (Example 5). Type of data set: physicochemical. The settings on record: 0.9% NaCl solution, dark, start 1.584 mg/ml (complex), 0.0216 mg/ml (uncomplexed). The procedure: In order to determine the content of delphinidin chloride in the delphinidin-containing solutions, a reverse phase HPLC process similar to that already described above was used. The following reagents were used thereby:
The delphinidin content was determined after 1, 2, 3 and 4 hours.
The determination of the delphinidin content in the samples was calculated with the aid of Agilent ChemStation software using calibration with the described external standard.

Data set [2] can be described thus: Solubility of delphinidin chloride in aqueous cyclodextrin solutions (Example 1). Type of data set: physicochemical. The settings on record: pure water, cyclodextrin concentration 0; stirred 20 hours at 30° C. in the dark, filtered 0.22 μm.
Procedure: In this example, the complexing of delphinidin by various cyclodextrins and the solubility of the complex in aqueous solution are studied.
Neutral aqueous solutions comprising 10% by weight of the respective cyclodextrin were prepared.
In each case 5 ml of the aqueous cyclodextrin solutions and of pure water were introduced into glass flasks. An excess of delphinidin chloride was then added.
The suspensions were stirred for 20 hours at 30° C. in the dark. They were then filtered through a membrane filter of 0.22 μm pore size.

For the compound `Oc1cc(O)c2cc(O)c(-c3cc(O)c(O)c(O)c3)[o+]c2c1.[Cl-]` [Delphinidin chloride], the “Delphinidin content as percentage of the starting concentration” value in data set [1] (0 h) amounted to 100%; in data set [1] (1 h), 8.3%; in data set [1] (2 h), 6.5%; in data set [1] (3 h), 5.6%; in data set [1] (4 h) it was 5.1%. Moreover, the “Achievable solubility, Delphinidin chloride” value in data set [2] came to 70 µg/mL.

The values are drawn from US20210047441A1, “ANTHOCYANIDIN COMPLEX” (priority 2012, published 2021).
